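Tested at 5 concentrations; 48 h exposure; 96-well plates; endpoints linearly interpolated, else capped at highest concentration. GI50 is the concentration that inhibits growth by half.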 The source made the active and inactive calls. No stated cut-off is given here; in the data, active = GI50 up to about 1.1 µM and inactive = higher. Bridge positions count the residues as written; N and C are the ends. Peptide text beside a SMILES is read from it. * marks the point of attachment. Cbz = O=C(OCc1ccccc1)*
Key:
Assay in all cases: inhibition of tumour cell growth, NCI panel, 48 h
UACC-257 = system: UACC-257
A549 = system: A549
MCF7 = system: MCF7
ACHN = system: ACHN
DU-145 = system: DU-145
UACC-62 = system: UACC-62
SK-MEL-28 = system: SK-MEL-28
MDA-MB-435 = system: MDA-MB-435
SK-MEL-2 = system: SK-MEL-2
OVCAR-3 = system: OVCAR-3
SNB-19 = system: SNB-19
SF-539 = system: SF-539
OVCAR-4 = system: OVCAR-4
KM12 = system: KM12
TK-10 = system: TK-10
NCI/ADR-RES = system: NCI/ADR-RES
CAKI-1 = system: CAKI-1
786-0 = system: 786-0
PC-3 = system: PC-3
T47D = system: T47D

Structure (SMILES) | GI50 (UACC-257) | GI50 (A549) | GI50 (MCF7) | GI50 (ACHN) | GI50 (DU-145) | GI50 (UACC-62) | GI50 (SK-MEL-28) | GI50 (MDA-MB-435) | GI50 (SK-MEL-2) | GI50 (OVCAR-3) | GI50 (SNB-19) | GI50 (SF-539) | GI50 (OVCAR-4) | GI50 (KM12) | GI50 (TK-10) | GI50 (NCI/ADR-RES) | GI50 (CAKI-1) | GI50 (786-0) | GI50 (PC-3) | GI50 (T47D)
CNC(=O)C1CCCCNC(=O)CCC(NC(=O)OCc2ccccc2)C(=O)N1 (stereo not drawn) (Cbz-Glu-Lys-NHMe; lactam 1-2; configuration not given here) | > 100 µM (inactive) | > 100 µM (inactive) | > 100 µM (inactive) | > 100 µM (inactive) | > 100 µM (inactive) | > 100 µM (inactive) | > 100 µM (inactive) | > 100 µM (inactive) | > 100 µM (inactive) | > 100 µM (inactive) | > 100 µM (inactive) | > 100 µM (inactive) | > 100 µM (inactive) | > 100 µM (inactive) | > 100 µM (inactive) | > 100 µM (inactive) | > 100 µM (inactive) | > 100 µM (inactive) | > 100 µM (inactive) | > 100 µM (inactive)
COc1cc2ccc(/C=C\[N+](=O)[O-])cc2cc1OC | 3.11 µM (inactive) | 11.4 µM (inactive) | 2.24 µM (inactive) | 1.81 µM (inactive) | 2.16 µM (inactive) | 5.15 µM (inactive) | 2.66 µM (inactive) | 2.86 µM (inactive) | 2.86 µM (inactive) | 3.5 µM (inactive) | 7.52 µM (inactive) | 1.97 µM (inactive) | 3.04 µM (inactive) | 6.85 µM (inactive) | 3.08 µM (inactive) | 6.43 µM (inactive) | 5.06 µM (inactive) | 1.68 µM (inactive) | 2.58 µM (inactive) | 2.92 µM (inactive)
CCN(CCC#N)C(=O)Nc1ccccc1 | > 100 µM (inactive) | > 100 µM (inactive) | > 100 µM (inactive) | > 100 µM (inactive) | > 100 µM (inactive) | > 100 µM (inactive) | > 100 µM (inactive) | > 100 µM (inactive) | > 100 µM (inactive) | > 100 µM (inactive) | > 100 µM (inactive) | > 100 µM (inactive) | > 100 µM (inactive) | 86.7 µM (inactive) | > 100 µM (inactive) | > 100 µM (inactive) | > 100 µM (inactive) | > 100 µM (inactive) | > 100 µM (inactive) | > 100 µM (inactive)
CCN(CCO)CCNc1ccc(C)c2sc3ccccc3c(=O)c12 | 2.75 µM (inactive) | 4.3 µM (inactive) | 1.8 µM (inactive) | 4.26 µM (inactive) | 10.2 µM (inactive) | 1.76 µM (inactive) | 2.02 µM (inactive) | 1.96 µM (inactive) | 3.59 µM (inactive) | 10.2 µM (inactive) | 11 µM (inactive) | 3.75 µM (inactive) | 7.8 µM (inactive) | 3.68 µM (inactive) | 8.81 µM (inactive) | 3.07 µM (inactive) | 4.73 µM (inactive) | 2.96 µM (inactive) | 3.31 µM (inactive) | 3.01 µM (inactive)
COc1ccccc1NC1Oc2cc3c(cc2C(c2cc(OC)c(OC)c(OC)c2)C1C)OCO3 (stereo not given) | 8.17 µM (inactive) | 4.53 µM (inactive) | 2.65 µM (inactive) | 9.91 µM (inactive) | 4.75 µM (inactive) | 1.53 µM (inactive) | > 25.1 µM (inactive) | 0.242 µM (active) | 5.85 µM (inactive) | 1.52 µM (inactive) | 6.56 µM (inactive) | 1.7 µM (inactive) | 6.37 µM (inactive) | 1.43 µM (inactive) | > 100 µM (inactive) | 2.59 µM (inactive) | 2.22 µM (inactive) | 3.5 µM (inactive) | 1.12 µM (active) | 5.86 µM (inactive)
Cc1cc(=O)oc2c(C3=NN(C=O)C(c4ccccc4)C3)c(O)ccc12 (stereo not given) | 83.4 µM (inactive) | 20.8 µM (inactive) | > 50.5 µM (inactive) | 14.8 µM (inactive) | > 100 µM (inactive) | 82.2 µM (inactive) | > 100 µM (inactive) | > 65.9 µM (inactive) | 52.5 µM (inactive) | > 71.3 µM (inactive) | 47.4 µM (inactive) | 52.4 µM (inactive) | > 64.1 µM (inactive) | > 100 µM (inactive) | 57.4 µM (inactive) | 61.9 µM (inactive) | > 72.1 µM (inactive) | 26.1 µM (inactive) | > 74.1 µM (inactive) | > 100 µM (inactive)
